In patent publication US4784999A, “Novel treatment” (Beecham Wuelfing GmbH & Co. KG, priority 1986, dated 1988):

What was measured:
[1] = biological target: cAMP phosphodiesterase of rat brain; assay: Inhibitory activity on cAMP phosphodiesterase of rat brain (Dixon plot); format: biochemical; conditions: homogenates of rat brain; 0.31 μM cyclic AMP as substrate; extrapolated from Dixon plot; read-out: apparent Ki
Description: The activity of cyclic AMP phosphodiesterase in homogenates of rat brain was measured in the presence of various concentrations of the compound 1,3-di-n-butyl-7-(2-oxypropyl)xanthine using 0.31 μM cyclic AMP as substration The reciprocal of the reaction rate was plotted on the y axis against each concentration of the compound on the x axis (Dixon plot). The apparent Ki value was estimated by extrapolating the steeper linear portion of the Dixon plot to the x axis and obtaining the negative intercept on the x axis.

[2] = system: recall latency in the gerbil following transient forebrain ischaemia; assay: Gerbil Ischaemic Deficit Passive Avoidance Test; format: in vivo, Mongolian gerbils; conditions: Ischaemia and Test Compound, 10 mg/kg p.o., seven administrations; gerbils after 5 min bilateral carotid ligation; significantly different from ischaemic controls (p<0.05)
Description: Mongolian gerbils were conditioned to avoid entering a dark compartment by means of a footshock (maximally 50 V, 2 s duration) received when entering from the light section of a two compartment box. Recollection of the footshock was examined 24 h later by replacing the gerbils in the two compartment box and measuring the recall latency, the time taken to re-enter the dark compartment.
A learning or memory deficit was induced in the gerbils by a transient (5 min) bilateral carotid artery ligation, performed 24 h prior to conditioning, under light hexobarbital anaesthesia.
Compounds, being examined for an effect on learning or memory in gerbils which had undergone carotid occlusion, were administered seven times during the experiment The initial administration was during the period of forebrain ischaemia, the third and seventh administrations were 10 min prior to conditioning and recall testing, respectively, and the remainder were given at intermediate time points.
A long recall latency indicates good information acquisition or retrieval.

[3] = system: rat ischaemic gastrocnemius muscle; assay: Oxygen tension (pO2) of rat ischaemic gastrocnemius muscle; format: in vivo; conditions: 0.5 mg/kg administered intravenously; ischaemic hindlimb gastrocnemius muscle, anaesthetized rats; n=12; p<0.01 signed rank test
[4] = system: Triethyltin-induced cerebral oedema; assay: Triethyltin-induced cerebral oedema in the rat; format: in vivo; conditions: 2×50 mg/kg orally, twice daily for 5 days of triethyltin intoxication; Wistar rats; brain water content; p<0.05 (student's t-test)
Description: The cerebral oedema is induced by oral administrations repeated for 5 consecutive days--one administration per day--of triethyltin chloride at a dose of 2 mg/kg. The test compound is also administered orally twice daily as aqueous solution or suspension at a dose of 1 ml/100 g body-weight; these administrations are given during the 5 days of intoxication with tin. Three groups of 10 male specific pathogen-free (SPF) Wistar rats of 280±10 g body-weight are used:
1 group intoxicated with triethyltin
1 group intoxicated with triethyltin and treated with the studied compound The rats are killed on the evening of the fifth day; the brain is removed, weighed fresh and after desiccation to constant weight and the water content of each brain is calculated [H2 O]=fresh weight-dry weight.
The following are then calculated the mean water content (M+Sm %) of each group; the protection index P due to the administered compound: [formula]

With `CCCCn1c(=O)c2c(ncn2CC(C)=O)n(CCCC)c1=O` [1,3-di-n-butyl-7-(2-oxypropyl)xanthine] the Ki [1] was 64 µM, the “Percentage of animals with recall latencies >60s” value [2] was 36 and the “mean (±SEM) increase in pO2” value [3] was 5.7±2.1 torr. The “protection index P” value [4] was 65%.
